Broadly, the IC50 is the concentration that gives 50% inhibition.

Experimental findings from patent US8993542B2, “Methods of treating viral infections” (priority 2008, dated 2015) are described below.

Where only a bound is given, the exact number is not on record here.

Common to all, as to type: cell-based
In assay [1] the test system is HIV-1IIIB. The assay can be described thus: Two-drug combination antiviral assay in CEM cells (CPE), MacSynergy II. The settings on record: for Antagonism Volume, Result 1 / Antagonism Volume, Result 2 / Antagonism Volume, Result 3 / Mean Antagonism Volume (n = 3) / Mean Synergy Volume (n = 3) / Synergy Volume, Result 1 / Synergy Volume, Result 2 / Synergy Volume, Result 3: in combination with CMX157, CEM-SS cells, 95% confidence; for Interpretation of Antiviral Results (MacSynergy): two-drug combination (with CMX157; control d4T/RBV), CEM-SS cells.

The test system of another assay is HIV. The experiment in a line: microbe, parasite or virus in culture.
In assay [2] the test system is HIV-1IIIB. The assay can be described thus: TCID50 determination of drug-treated HIV-1IIIB. Also on record: TCID50, XTT Endpoint / TCID50, RT Endpoint / TCID50, P24 Endpoint: unit not given here.
The mark [3] stands for this setting: virus treated 15 minutes with 0.039 nM drug.
Setting [4] is: virus treated 15 minutes with 0.125 nM drug.
[5] abbreviates: virus treated 15 minutes with 0.39 nM drug.
The mark [6] stands for this setting: virus treated 15 minutes with 1.25 nM drug.
The mark [7] stands for this setting: virus treated 15 minutes with 3.9 nM drug.
The mark [8] stands for this setting: virus treated 15 minutes with 12.5 nM drug.
Setting [9] is: virus treated 15 minutes with 39.1 nM drug.
Setting [10] is: virus treated 15 minutes with 125 nM drug.

As for `CC(C)c1nc(CN(C)C(=O)N[C@H](C(=O)N[C@@H](Cc2ccccc2)C[C@H](O)[C@H](Cc2ccccc2)NC(=O)OCc2cncs2)C(C)C)cs1` [Ritonavir (RTV), ritonavir], in the assay with HIV-1IIIB [1], the “Antagonism Volume, Result 1” value is 0 nM^2 %, μM^2 % or nMμM %; the “Antagonism Volume, Result 2” value is given as 0 nM^2 %, μM^2 % or nMμM %; the “Antagonism Volume, Result 3” value is reported as −2.61 nM^2 %, μM^2 % or nMμM %; the “Mean Antagonism Volume (n = 3)” value was 0 nM^2 %, μM^2 % or nMμM %. In addition, in the assay with HIV-1IIIB [1], the “Mean Synergy Volume (n = 3)” value is given as 66.4 nM^2 %, μM^2 % or nMμM %; the “Synergy Volume, Result 1” value is 47.5 nM^2 %, μM^2 % or nMμM %; the “Synergy Volume, Result 2” value is on record as 38.0 nM^2 %, μM^2 % or nMμM %; the “Synergy Volume, Result 3” value was 116 nM^2 %, μM^2 % or nMμM %. In addition, the “Interpretation of Antiviral Results (MacSynergy)” value in the assay on HIV-1IIIB [1] is on record as “slightly synergistic”.

For the compound `Cc1ccnc2c1NC(=O)c1cccnc1N2C1CC1` [Nevirapine (NVP), nevirapine], in the assay with HIV-1IIIB [1], the “Antagonism Volume, Result 1” value is 0 nM^2 %, μM^2 % or nMμM %; the “Antagonism Volume, Result 2” value was 0 nM^2 %, μM^2 % or nMμM %; the “Antagonism Volume, Result 3” value is given as 0/0 nM^2 %, μM^2 % or nMμM %; the “Mean Antagonism Volume (n = 3)” value is given as 0 nM^2 %, μM^2 % or nMμM %. In the assay on HIV-1IIIB [1], the “Mean Synergy Volume (n = 3)” value is 38.5 nM^2 %, μM^2 % or nMμM %; the “Synergy Volume, Result 1” value was 74.1 nM^2 %, μM^2 % or nMμM %; the “Synergy Volume, Result 2” value is on record as 41.5 nM^2 %, μM^2 % or nMμM %; the “Synergy Volume, Result 3” value is 0/0 nM^2 %, μM^2 % or nMμM %.

Turning to `CC(C)Nc1cccnc1N1CCN(C(=O)c2cc3cc(NS(C)(=O)=O)ccc3[nH]2)CC1` [Delavirdine (DLV), delavirdine], in the assay with HIV-1IIIB [1], the “Antagonism Volume, Result 1” value is recorded as 0 nM^2 %, μM^2 % or nMμM %; the “Antagonism Volume, Result 2” value is recorded as 0 nM^2 %, μM^2 % or nMμM %; the “Antagonism Volume, Result 3” value is −2.58 nM^2 %, μM^2 % or nMμM %; the “Mean Antagonism Volume (n = 3)” value was 0 nM^2 %, μM^2 % or nMμM %. Besides, in the assay on HIV-1IIIB [1], the “Mean Synergy Volume (n = 3)” value was 72.9 nM^2 %, μM^2 % or nMμM %; the “Synergy Volume, Result 1” value is given as 152 nM^2 %, μM^2 % or nMμM %; the “Synergy Volume, Result 2” value was 68.4 nM^2 %, μM^2 % or nMμM %; the “Synergy Volume, Result 3” value is 1.01 nM^2 %, μM^2 % or nMμM %. Besides, the “Interpretation of Antiviral Results (MacSynergy)” value with HIV-1IIIB [1] was “slightly synergistic”.

As to `CCC[C@@]1(CCc2ccccc2)CC(O)=C([C@H](CC)c2cccc(NS(=O)(=O)c3ccc(C(F)(F)F)cn3)c2)C(=O)O1` [Tipranavir (TPV), tipranavir], in the assay on HIV-1IIIB [1], the “Antagonism Volume, Result 1” value was 0 nM^2 %, μM^2 % or nMμM %; the “Antagonism Volume, Result 2” value is recorded as −8.60 nM^2 %, μM^2 % or nMμM %; the “Antagonism Volume, Result 3” value was 0 nM^2 %, μM^2 % or nMμM %; the “Mean Antagonism Volume (n = 3)” value is listed as −2.87 nM^2 %, μM^2 % or nMμM %. In addition, in the assay on HIV-1IIIB [1], the “Mean Synergy Volume (n = 3)” value was 52.2 nM^2 %, μM^2 % or nMμM %; the “Synergy Volume, Result 1” value was 110 nM^2 %, μM^2 % or nMμM %; the “Synergy Volume, Result 2” value is recorded as 29.4 nM^2 %, μM^2 % or nMμM %; the “Synergy Volume, Result 3” value is recorded as 16.8 nM^2 %, μM^2 % or nMμM %.

For the compound `Nc1ccn([C@@H]2CS[C@H](CO)O2)c(=O)n1` [3TC, (2R, 5S, cis)-4-amino-1-(2-hydroxymethyl-1,3-oxathiolan-5-yl)-(1H)-pyrimidin-2-one], the IC50 was 3.24 µM in the assay on HIV (Human immunodeficiency virus 1, PANEL 1, WT); 4.44 µM with HIV (Human immunodeficiency virus 1, PANEL 2, WT); 13.9 µM with HIV (Human immunodeficiency virus 1, PANEL 3, 6 TAMs, no 184); greater than 300 µM with HIV (Human immunodeficiency virus 1, PANEL 6, 6 TAMs + 184); greater than 300 µM with HIV (Human immunodeficiency virus 1, PANEL 7, 184V); 45.9 µM with HIV (Human immunodeficiency virus 1, PANEL 9, 69ins, no 184). Further, the IC50 in the assay with HIV (Human immunodeficiency virus 1, PANEL 12, 69ins + 184) is greater than 300 µM; in the assay with HIV (Human immunodeficiency virus 1, PANEL 14, 65R, no 184), 70.8 µM; in the assay with HIV (Human immunodeficiency virus 1, PANEL 15, 65R + 184V), greater than 300 µM; in the assay on HIV (Human immunodeficiency virus 1, PANEL 17, L74V), 6.98 µM; in the assay with HIV (Human immunodeficiency virus 1, PANEL 19, L74V + M184V) it was greater than 300 µM; in the assay with HIV (Human immunodeficiency virus 1, PANEL 26, 151M, no 184), 89.6 µM. Also, the IC50 in the assay with HIV (Human immunodeficiency virus 1, PANEL 28, 151M + 184) is greater than 300 µM; with HIV (Human immunodeficiency virus 1, PANEL 29, L74V − SDM), 6.1 µM; with HIV (Human immunodeficiency virus 1, PANEL 30, M184V − SDM), greater than 300 µM; in the assay on HIV (Human immunodeficiency virus 1, PANEL 31, K65R − SDM), 43.3 µM; in the assay with HIV (Human immunodeficiency virus 1, PANEL 33, T215Y), 6.12 µM; with HIV (Human immunodeficiency virus 1, PANEL 34, T215Y + M184V), greater than 300 µM. For the same compound, the IC50 in the assay with HIV (Human immunodeficiency virus 1, PANEL 35, M41L + T215Y) is 7.55 µM; in the assay on HIV (Human immunodeficiency virus 1, PANEL 37, M41L + T215Y + M184V) it was greater than 300 µM; with HIV (Human immunodeficiency virus 1, PANEL 38, M41L + L210W + T215Y), 10.3 µM; in the assay with HIV (Human immunodeficiency virus 1, PANEL 39, M41L + L210W + T215Y), 5.89 µM; in the assay on HIV (Human immunodeficiency virus 1, PANEL 40, M41L + L210W + T215Y + M184V), greater than 300 µM; in the assay with HIV (Human immunodeficiency virus 1, PANEL 41, M41L + L210W + T215Y + M184V), greater than 300 µM. Moreover, the IC50 with HIV (Human immunodeficiency virus 1, PANEL 42, D67N + K70R) is 8.07 µM; with HIV (Human immunodeficiency virus 1, PANEL 44, D67N + K70R + T215F + K219E + M184V), greater than 300 µM; in the assay on HIV (Human immunodeficiency virus 1, PANEL 45, L210W + T215Y), 7.26 µM; with HIV (Human immunodeficiency virus 1, PANEL 46, D67N + K70E) it was 10.8 µM; in the assay on HIV (Human immunodeficiency virus 1, PANEL 47, D67N + K70E + M184V), greater than 300 µM; in the assay on HIV (Human immunodeficiency virus 1, PANEL 48, K70E + M184V), greater than 300 µM.

In the case of `CCCCCCCCCCCCCCCCOCCCOP(=O)(O)OCCOCn1cnc2c(=O)[nH]c(N)nc21` [HDP-ACV], in the assay with HIV-1IIIB [2] (15 minutes, 0.039 to 125 nM), the “effect on infectious virus” value is “no effect”. Further, the “Fold Decrease From VC, P24 Endpoint” value in the assay on HIV-1IIIB [2] (setting [3]) is listed as “(0) Fold”; with HIV-1IIIB [2] (setting [4]), “(0) Fold”; with HIV-1IIIB [2] (setting [5]) it was “(0) Fold”; in the assay on HIV-1IIIB [2] (setting [6]), “(1.4) Fold”; in the assay on HIV-1IIIB [2] (setting [7]), “(0) Fold”; in the assay on HIV-1IIIB [2] (setting [8]), “(0) Fold”. The “Fold Decrease From VC, P24 Endpoint” value is given as “(0) Fold” with HIV-1IIIB [2] (setting [9]) and “(1.4) Fold” in the assay with HIV-1IIIB [2] (setting [10]). The “Fold Decrease From VC, RT Endpoint” value in the assay with HIV-1IIIB [2] (setting [3]) was “(1.2) Fold”; with HIV-1IIIB [2] (setting [4]), “(1.6) Fold”; with HIV-1IIIB [2] (setting [5]), “(1.1) Fold”; with HIV-1IIIB [2] (setting [6]) it was “(1.6) Fold”; in the assay with HIV-1IIIB [2] (setting [7]) it was “(1.6) Fold”; in the assay with HIV-1IIIB [2] (setting [8]) it was “(1.1) Fold”. Besides, the “Fold Decrease From VC, RT Endpoint” value in the assay on HIV-1IIIB [2] (setting [9]) and with HIV-1IIIB [2] (setting [10]) was “(0) Fold” each time. The “Fold Decrease From VC, XTT Endpoint” value in the assay on HIV-1IIIB [2] (setting [3]) is reported as “(0) Fold”; with HIV-1IIIB [2] (setting [4]), “(1.1) Fold”; in the assay on HIV-1IIIB [2] (setting [5]), “(0) Fold”; with HIV-1IIIB [2] (setting [6]), “(1.1) Fold”; in the assay with HIV-1IIIB [2] (setting [7]), “(0) Fold”; with HIV-1IIIB [2] (setting [8]) it was “(0) Fold”. Moreover, the “Fold Decrease From VC, XTT Endpoint” value is reported as “(1.1) Fold” with HIV-1IIIB [2] (setting [9]) and “(0) Fold” in the assay on HIV-1IIIB [2] (setting [10]). The “TCID50, P24 Endpoint” value came to 30411 in the assay on HIV-1IIIB [2] (setting [3]); 36277 in the assay with HIV-1IIIB [2] (setting [4]); 30411 in the assay with HIV-1IIIB [2] (setting [5]); 21529 in the assay with HIV-1IIIB [2] (setting [6]); 30411 with HIV-1IIIB [2] (setting [7]); 36227 in the assay with HIV-1IIIB [2] (setting [8]). The “TCID50, P24 Endpoint” value was 30411 in the assay on HIV-1IIIB [2] (setting [9]) and 21529 in the assay on HIV-1IIIB [2] (setting [10]). Further, the “TCID50, RT Endpoint” value is on record as 132749 in the assay with HIV-1IIIB [2] (setting [3]); 102336 in the assay on HIV-1IIIB [2] (setting [4]); 144887 in the assay with HIV-1IIIB [2] (setting [5]); 102336 in the assay with HIV-1IIIB [2] (setting [6]); 102336 with HIV-1IIIB [2] (setting [7]); 144887 in the assay with HIV-1IIIB [2] (setting [8]). Moreover, the figures for the “TCID50, RT Endpoint” value in the assay with HIV-1IIIB [2] (setting [9]) and with HIV-1IIIB [2] (setting [10]) were 204659 and 162566, respectively. Also, the “TCID50, XTT Endpoint” value in the assay on HIV-1IIIB [2] (setting [3]) came out at 18115; with HIV-1IIIB [2] (setting [4]), 16145; in the assay on HIV-1IIIB [2] (setting [5]), 20325; in the assay with HIV-1IIIB [2] (setting [6]), 16145; in the assay on HIV-1IIIB [2] (setting [7]), 20325; with HIV-1IIIB [2] (setting [8]) it was 18115. Moreover, the figures for the “TCID50, XTT Endpoint” value in the assay with HIV-1IIIB [2] (setting [9]) and in the assay with HIV-1IIIB [2] (setting [10]) were 16145 and 18115, respectively.
